# Laboratory results as given in patent publication US10238670B2, “9-aminomethyl minocycline compounds and methods of use thereof in urinary tract infection (UTI) treatment” (Paratek Pharmaceuticals, Inc., priority 2016, dated 2019).
# Several values for one entry are separate records, joined by “and”; a condition that tells them apart may be missing. Equal values may be shown once. Read-outs that look alike come from different tables or passages of the source.
# Assays:
# [1] = In vitro plasma protein binding (ultrafiltration), human plasma; format: in vitro ADME; settings: male; human plasma; 10-10,000 ng/mL; mean±SD; read-out: mean unbound protein fraction (fu) in plasma
# Procedure: (§1) For human binding studies, plasma was obtained from the blood of three healthy male volunteers. Plasma was defrosted from storage at -20° C. before use, and pools of human plasma were used for all studies. Plasma from mouse, rat, and monkey was supplied by Harlan Laboratories Ltd. (Netherlands), Milan […], Switzerland) and Centre de Primatologie ULP (France), respectively. Protein binding was measured using an ultrafiltration method. To asses the suitability of ultrafiltration, the recovery and free permeation of [^14C]-labelled Compound 1 in PBS buffer were investigated. […] Three 1 mL aliquots per concentration were introduced into […]® devices and spun for 1 min at 2000 g (filtrate ≤500 μL). Samples of the spiked solutions, the filtrate and retentate were quantified by LSC; volumes were determined by weighing. The free permeation of the test compound in PBS was evaluated as follows: Ratio=[Cuf/Cr] with Cuf being the concentration in the ultrafiltrate (ng/mL) and Cr the concentration in the retentate (ng/mL). […] Specifically, concentrations of Compound 1 was determined by an UPLC-MS/MS method. […] Standards and quality control samples were prepared on the day of analysis by adding a 20 μL aliquot of an appropriate standard or QC spiking solution in methanol. A 25 μL aliquot of the internal standard (at 200 ng/mL in methanol) was added to each well except blanks. […] Samples were processed using protein precipitation. A 0.5 mL aliquot of an acetonitrile/ethanol/acetic acid mixture (90:10:0.1, v:v:v) was added to each sample; samples were mixed using a vortex mixer for 10 minutes, and centrifuged 3800 rpm (approximately 2500×g) for 10 min at 10° C. A 500 μL aliquot of the supernatant transferred to a clean 96 well plate, 2 ml. An aliquot 500 μL of 80:20 (water:acetonitrile) was added to all the samples. Samples were mixed by vortexing for 0.5 min. A 6 μL sample volume was injected into the UPLC/MS/MS system for analysis. Samples were then assayed on an UPLC-MS/MS system, consisting of an Acquity UPLC with a quaternary pump, a ample manager, and sample organizer, coupled to a Sciex API4000 mass spectrometer running Analyst software version 1.4.2 (Foster City, Calif., USA). The mass spectrometer was operated in the positive ion mode, using electro spray ionization, with a source temperature of 500° C. Chromatographic separation was carried out on an Acquity BEH C18, 50×2.1, 1.7 particle (Waters, Mass.) at a flow rate of 1.0 mL/min. The column temperature was maintained at 65° C. […] The ions monitored for Compound 1 was the parent [M+H]^+ ion at m/z 557.3.0; the product ions at m/z 453.4. Data processing: Calibration curves (y=x^2+xb+c or y=ax+b), represented by the plots of the respective peak area ratios (y) of the analyte […] versus the concentrations (x) of the calibration samples, were generated using weighted (1/x^2 or 1/x) quadratic least-squares regression as the mathematical model. The quantification was performed using Analyst software and Watson LIMS version 7.2.0.01. Concentrations in QC and study samples were calculated from the resulting peak area ratios and interpolation from the regression equations of the respective calibration curves. The lower limit of quantitation was 5.0 ng/mL for Compound 1.
# plasma proteins = assay: as above; format: in vitro ADME
# Procedure: as §1
# [2] = Pharmacokinetics of Compound 1 in mouse plasma versus kidney; format: in vivo
# [3] = 14C-labeled Compound 1 single oral 300 mg dose, plasma and urine; format: in vivo, human; settings: for AUC(0-inf): 300 mg
# Procedure: ^14C-labeled Compound 1 was administered as a single oral 300 mg dose to healthy human subjects. […] The concentrations of Compound 1 in urine are shown in Table 2 and indicate that urine concentrations exceed the plasma concentrations throughout the dosing interval. The AUC0-24 in urine was 186.1 μg*hr/ml.
# While the driver of efficacy for Compound 1 in UTI is not completely known, and while not wishing to be bound by any particular theory, Applicant believes that maximizing time of urine concentration above pathogen MIC (ideally, throughout the dosing interval) is desirable. This belief is partly based on a clinical study that evaluated the disposition of a single 300 mg oral dose of ^14C-Compound 1. In this study, plasma concentrations were consistent with previous oral dosing studies (area under the concentration-time curve from 0 to infinity [AUC0-inf] 9.4 μg·h/mL), and it was determined that approximately 40% of the absorbed dose was eliminated in the urine. Urine concentrations of Compound 1 were not measured directly but estimated concentrations (based on portion of excreted radioactivity) exceeded plasma concentrations and averaged between 7.6 and 11.2 μg/mL over the 24 hours following dosing. These urine concentrations would exceed the MIC90 for ESBL-producing E. coli (4 μg/mL) by approximately 2-fold. It is also known from Applicant's clinical studies that exposure to Compound 1 based on plasma concentrations is approximately 50% higher at steady-state than after a single dose.
# E. coli FQS = assay: In vitro MIC, 2010 surveillance isolates; format: cell-based, Escherichia coli; settings: N=2906
# Citrobacter spp. = assay: In vitro MIC, 2010 surveillance isolates; format: cell-based; settings: N=253
# S. marcescens = assay: In vitro MIC, 2010 surveillance isolates; format: cell-based; settings: N=424
# E. coli = assay: In vitro activity in urine relative to standard media; format: cell-based
# [4] = test system: human transporters and cytochrome P-450; settings: cited from earlier work
compound,measurement,setting,value
"CN(C)c1cc(CNCC(C)(C)C)c(O)c2c1C[C@H]1C[C@H]3[C@H](N(C)C)C(O)=C(C(N)=O)C(=O)[C@@]3(O)C(O)=C1C2=O [Compound 1, 9-[(2,2-dimethyl-propylamino)-methyl]-minocycline]",fraction unbound,[1],0.787 ± 0.0972
same,Mean (SD) Bound Fraction,"plasma proteins; human plasma, 10-10,000 ng/mL",21% and 21.3 (9.72) %
same,concentration dependency of plasma protein binding,"plasma proteins; human plasma, 10-10,000 ng/mL",not concentration dependent
same,mean unbound protein fraction (fu) in plasma,"plasma proteins; human plasma, 10-10,000 ng/mL, mean±SD",78.7±9.7%
same,fraction unbound at 100 ng/mL,"plasma proteins; male, human, plasma, Concentration 100 ng/mL",0.656
same,fraction unbound at 1000 ng/mL,"plasma proteins; male, human, plasma, Concentration 1,000 ng/mL",0.878
same,fraction unbound at 10000 ng/mL,"plasma proteins; male, human, plasma, Concentration 10,000 ng/mL",0.798
same,fraction unbound,"plasma proteins; male, human, plasma, Mean over concentrations",0.787
same,Kp,"[2]; kidney/plasma, sc, Subcutaneous, 4.0 mg/kg, read-out: AUC Ratio Kidney:Plasma",4.2
same,AUC(0-inf),"[2]; plasma, sc, Subcutaneous, 4.0 mg/kg",2820 ng·h/mL
same,Kp,"[2]; tissues including kidney, relative to plasma, subcutaneous, 4 mg/kg, species not printed at b200, read-out: concentrations in tissues including the kidneys relative to plasma",~4
same,absorbed dose eliminated in the urine,"[3]; human, in vivo, po",approximately 40%
same,"estimated concentrations in urine, average over 24 hours","[3]; human, in vivo, po",7.6 and 11.2
same,urine concentration relative to 4 μg/mL (MIC90 for ESBL-producing E. coli),"[3]; human, in vivo, po",approximately 2 fold
same,AUC(0-inf),"[3]; human, in vivo, po, plasma AUC0-inf",9400 ng·h/mL
same,AUC(0-inf),"[3]; human, in vivo, po, plasma AUCinf",9420 ng·h/mL
same,plasma Cmax,"[3]; single oral 300 mg dose, healthy subjects",563 ng/mL
same,Cumulative % Inhibition at MIC,E. coli FQS; MIC 1 μg/ml,87.0%
same,Cumulative % Inhibition at MIC,E. coli FQS; MIC 2 μg/ml,96.6%
same,Cumulative % Inhibition at MIC,E. coli FQS; MIC 4 μg/ml,99.6%
same,Cumulative % Inhibition at MIC,E. coli FQS; MIC 8 μg/ml,99.9%
same,Cumulative % Inhibition at MIC,E. coli FQS; MIC 16 μg/ml,99.9%
same,Cumulative % Inhibition at MIC,"E. coli FQS; MIC ≤0.5 μg/ml, listed as head image P00007",58.5%
same,Cumulative % Inhibition at MIC,E. coli FQS; MIC ≥32 μg/ml,100%
same,Cumulative % Inhibition at MIC,Citrobacter spp.; MIC 1 μg/ml,44.7%
same,Cumulative % Inhibition at MIC,Citrobacter spp.; MIC 2 μg/ml,79.1%
same,Cumulative % Inhibition at MIC,Citrobacter spp.; MIC 4 μg/ml,93.3%
same,Cumulative % Inhibition at MIC,Citrobacter spp.; MIC 8 μg/ml,97.6%
same,Cumulative % Inhibition at MIC,Citrobacter spp.; MIC 16 μg/ml,100%
same,Cumulative % Inhibition at MIC,"Citrobacter spp.; MIC ≤0.5 μg/ml, listed as head image P00016",14.6%
same,Cumulative % Inhibition at MIC,S. marcescens; MIC 1 μg/ml,0.7%
same,Cumulative % Inhibition at MIC,S. marcescens; MIC 2 μg/ml,20.3%
same,Cumulative % Inhibition at MIC,S. marcescens; MIC 4 μg/ml,76.2%
same,Cumulative % Inhibition at MIC,S. marcescens; MIC 8 μg/ml,91.0%
same,Cumulative % Inhibition at MIC,S. marcescens; MIC 16 μg/ml,93.6%
same,Cumulative % Inhibition at MIC,"S. marcescens; MIC ≤0.5 μg/ml, listed as head image P00017",0%
same,Cumulative % Inhibition at MIC,S. marcescens; MIC ≥32 μg/ml,100%
same,activity in urine relative to standard media,E. coli,stable
same,potential for drug-drug interactions,[4],low potential for drug-drug interactions
